Laboratory results from US20210401931A1, “METHODS AND MATERIALS FOR TREATING CANCER” (Mayo Foundation for Medical Education and Research, priority 2018, published 2021).
Entries after “also recorded” stand apart in the source; their conditions may differ. Blank lines part the entries; values can stand above or below the molecule they belong to.

Columns and labels:
[1] = test system: MAP3K7- and CHD1-KD PC-3 cells; assay: MTS viability / IC50 analysis in MAP3K7- and CHD1-KD PC-3 cells; assay type: cell-based, human; settings: MTS assay, log 2(IC50ratio)
Experimental: FIGS. 14A-G. RB functions as a negative regulator of NFκB signaling. (A) PC-3 infected with lentivirus for indicated shRNAs were treated with different chemicals and cells viability was measured by MTS assay. Heat map showing the normalized IC50 ratio (log 2(IC50ratio)). (B-D) PC-3 cells infected with lentivirus expressing indicated shRNAs were harvested for western blots (B), FACS (C), and RT-qPCR (D). All data were shown as mean values±SD (n=3). ns, not significant, * P<0.05, ** P<0.01, *** P<0.001. (E, F) PC-3 cells infected with indicated lentivirus were injected s.c. into NSG mice, and tumors were harvested and photographed at day 21 (E). Data in (F) were shown as means±SD (n=5). ns, not significant, * P<0.05. (G) A model depicting RB functions as a negative regulator of NFκB (p65/p50), providing an explanation of the finding that depletion of RB offsets the death of PTEN-null cells induced by either MAP3K7 or CHD1 deletion.
MAP3K7 or CHD1 was knocked down (KD) in PTEN-null PC-3 cells followed by treatment with an array of small molecule inhibitors for a number of cancer relevant pathways.

p65-IκBα interaction = assay: Co-immunoprecipitation of p65 and IκBα in PC-3 cells; assay type: cell-based, human; settings: TNFα 20 ng/mL, 24 hours
[2] = test system: NF-κB site of the PD-L1 promoter; assay: EMSA with biotin-labeled PD-L1-prom oligonucleotide and PC-3 nuclear extracts; assay type: cell-based, human; settings: PC-3 nuclear extract
Description: FIGS. 11A-H. (A) Heatmap showing differentially expressed genes (FDR<0.01) between palbociclib treatment versus DMSO and knockdown RB1 versus control. Gene expression values (FPKM) were Z-score normalized. FPKM, Fragments Per Kilobase of transcript per Million mapped reads. (B) UCSC Genome Browser screenshots of meta-analysis of published RB ChIP high throughput sequencing (ChIP-seq) data showing RB binding to CD274 (PD-L1) gene locus in K562 cells. PD-L1-prom oligonucleotide DNA containing NF-κB binding sequence was shown in the RB binding peak in the PD-L1 gene, the corresponding mutant PD-L1-prom oligonucleotide DNA was shown below. FIG. 11B discloses SEQ ID NOS 279-280, respectively, in order of appearance. (C) ChIP-qPCR analysis of RB binds at the PD-L1 promotor in PC-3 cells. All data were shown as mean values±SD (n=3). *** P<0.001. (D) ChIP-reChIP analysis examining the co-localization of p65 and RB in the PD-L1 promoters. All data were shown as mean values±SD (n=3). ** P<0.01. […]
FIGS. 21A-N. Effect of RB depletion, cell cycle, and RB-N S249/T252 phospho-mimicking peptide on PD-L1 expression in cell lines of various cancer types. […] 48 hours after infection, PD-L1 expression was determined by western blotting (A), RT-qPCR (B), and FACS (C). […] (D) Pd-l1 protein and mRNA levels were determined by western blotting in primary SKO and DKO mouse prostate tumor cell lines. […]

RB-p65 interaction = assay: Co-immunoprecipitation of RB and p65 in PC-3 cells; assay type: cell-based, human; settings: TNFα 20 ng/mL, 24 hours
Description: FIGS. 2A-H. RB phosphorylation by CDK4 enhances RB interaction with NFκB protein p65. (A) Western blot analysis of reciprocal co-immunoprecipitation of endogenous RB1 and p65 proteins in PC-3 cells. (B) Schematic diagram depicting a set of p65 recombinant protein constructs. Western blot analysis of RB proteins in PC-3 cells whole cell lysate pulled down by GST or GST-p65 recombinant proteins. Stars indicated expected molecular weight. (C) Western blot analysis of RB proteins in PC-3 whole cell lysate pulled down by GST or GST-p65 recombinant proteins. Cell lysates were treated with or without λ, phosphatase before GST-pull down. (D) Western blot analysis of PC-3 whole cell lysates (WCL) and co-IP samples. Cell lysates were treated with or without λ, phosphatase before IP. (E) Western blot analysis of WCL and co-IP samples in DU145 cells 24 hours after transfected with indicated plasmids. (F) Western blot analysis of WCL and co-IP samples in PC-3 cells. Cells were treated with or without palbociclib (5 μM) for 24 hours before IP. […] Western blot bands of co-IPed RB protein were quantified by ImageJ software and normalized to the quantified value of IP-ed RB in cells without TNFα treatment. […] Western blot bands of p65 protein were quantified by ImageJ software and normalized to the quantified value of p65 protein in cell lysate without immuno-depletion (preimmune sample). […]

p65 NFκB protein = target: T1, p65 NFκB protein (human, UniProt Q04206 1-551); assay: GST pull down from PC-3 whole cell lysate, western blot (FIG. 2H)
T1 construct: which one stood in the assay is told under assay; also called endogenous p65; in vitro transcribed and translated p65 (pCMV4 p65)
Experimental: Cells were lysed with IP buffer (50 mM Tris-HCl, pH 7.4, 150 mM NaCl, 1% Triton X-100, 1% sodium deoxycholate, and 1% protease inhibitor cocktails) on ice for more than 30 minutes. GST fusion proteins were immobilized on glutathione-Sepharose beads (GE Healthcare Lifesciences). After washing with lysis buffer, the beads were incubated with cell lysates overnight at 4° C. overnight. The beads were then washed six times with binding buffer and re-suspended in sample buffer. The bound proteins were subjected to western blotting analysis.

T1 sequence (Q04206 whole entry): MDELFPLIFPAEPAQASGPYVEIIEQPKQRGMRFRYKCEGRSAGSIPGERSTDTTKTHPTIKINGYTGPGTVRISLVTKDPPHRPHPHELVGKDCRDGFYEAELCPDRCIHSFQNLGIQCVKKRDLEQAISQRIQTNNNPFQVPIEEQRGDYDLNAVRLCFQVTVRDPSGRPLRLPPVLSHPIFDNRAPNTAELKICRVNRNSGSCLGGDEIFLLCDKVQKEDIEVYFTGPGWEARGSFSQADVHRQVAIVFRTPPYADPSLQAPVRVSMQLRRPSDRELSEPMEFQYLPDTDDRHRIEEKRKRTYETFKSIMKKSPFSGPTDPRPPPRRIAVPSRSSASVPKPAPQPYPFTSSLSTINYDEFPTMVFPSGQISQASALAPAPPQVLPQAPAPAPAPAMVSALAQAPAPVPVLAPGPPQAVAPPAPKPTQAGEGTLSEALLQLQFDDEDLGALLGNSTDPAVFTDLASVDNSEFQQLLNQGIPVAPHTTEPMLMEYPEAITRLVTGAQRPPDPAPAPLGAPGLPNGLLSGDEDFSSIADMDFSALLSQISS

Molecule: Cc1ccc(NCCCc2ccccc2)c(N)c1 [JSH-23]
viability of MAP3K7- and CHD1-KD PC-3 cells (normalized IC50 ratio) [1]: further increased viability loss

Molecule: TNFα
p65-IκBα interaction (p65-IκBα interaction): decreased
DNA-protein complex (DPC) level at PD-L1-Prom probe [2]: largely enhanced; also recorded: further enhanced
p65-RB interaction in the nucleus (RB-p65 interaction): increased

binding result (p65 NFκB protein): no binding
B1: GST-RB-C (other, human, UniProt P06400 793-928, looked up)
chain: PSSPLRIPGGNIYISPLKSPYKISEGLPTPTKMTPRSRILVSIGESFGTSEKFQKINQMVCNSDRVLKRSAEGSNPPKPLKKLRFDIEGSDEADGSKHLPGESKFQQKLAEMTSTRTRMQKQKMNDSMDTSNKEEK
notes: domain: RB-C; not shown: glutathione S-transferase (GST) tag of the fusion
